Data from ChEMBL document CHEMBL4190171, “Chemical probes and inhibitors of bromodomains outside the BET family” (Medchemcomm, 2016).

How the values were obtained:
[1] = target: Cellular tumor antigen p53 (Homo sapiens, UniProt P04637); assay: Inhibition of p53-induced (unknown origin) expressed in human RKO cells assessed as reduction in p53-induced p21 activation measured after 24 hrs by luciferase reporter gene assay; assay type: cell-based
[2] = target: T1, Bromodomain-containing protein 4 (Homo sapiens, UniProt O60885); assay: Displacement of Halo-tagged histone H3.3 from Nluc-BRD4 (unknown origin) expressed in HEK293 cells using furimazine as substrate pretreated for 18 hrs followed by substrate addition measured within 5 mins by NanoBRET assay; assay type: cell-based
[3] = target: T2, Histone acetyltransferase p300 (Homo sapiens, UniProt Q09472); assay: Binding affinity to EP300 (unknown origin) by isothermal titration calorimetry
CREB-binding protein [4] = target: T3, CREB-binding protein (Homo sapiens, UniProt Q92793); assay: Binding affinity to C-terminally biotinylated N-terminal His10-tagged human CBP bromodomain (R1081 to G1198 residues) expressed in Escherichia coli BL21(DE3) by isothermal titration calorimetry
[5] = target: T1, Bromodomain-containing protein 4; assay: Binding affinity to human BRD4 bromodomain1 by isothermal titration calorimetry
[6] = target: T4, Histone acetyltransferase KAT2B (Homo sapiens, UniProt Q92831)
Description: Displacement of biotinylated small molecule ligand from His/FLAG-tagged PCAF bromodomain (719 to 832 residues) (unknown origin) after 15 mins by AlphaLisa method

CREB-binding protein [7] = target: T3, CREB-binding protein; assay: Inhibition of CBP bromodomain (unknown origin) using H3K56Ac peptide as substrate by Alphascreen assay
[8] = target: T5, ATPase family AAA domain-containing protein 2B (Homo sapiens, UniProt Q9ULI0); assay: Binding affinity to partial length human ATAD2B (Q955 to R1082) expressed in bacterial expression system by Bromoscan method
T5 sequence (Q9ULI0 whole entry): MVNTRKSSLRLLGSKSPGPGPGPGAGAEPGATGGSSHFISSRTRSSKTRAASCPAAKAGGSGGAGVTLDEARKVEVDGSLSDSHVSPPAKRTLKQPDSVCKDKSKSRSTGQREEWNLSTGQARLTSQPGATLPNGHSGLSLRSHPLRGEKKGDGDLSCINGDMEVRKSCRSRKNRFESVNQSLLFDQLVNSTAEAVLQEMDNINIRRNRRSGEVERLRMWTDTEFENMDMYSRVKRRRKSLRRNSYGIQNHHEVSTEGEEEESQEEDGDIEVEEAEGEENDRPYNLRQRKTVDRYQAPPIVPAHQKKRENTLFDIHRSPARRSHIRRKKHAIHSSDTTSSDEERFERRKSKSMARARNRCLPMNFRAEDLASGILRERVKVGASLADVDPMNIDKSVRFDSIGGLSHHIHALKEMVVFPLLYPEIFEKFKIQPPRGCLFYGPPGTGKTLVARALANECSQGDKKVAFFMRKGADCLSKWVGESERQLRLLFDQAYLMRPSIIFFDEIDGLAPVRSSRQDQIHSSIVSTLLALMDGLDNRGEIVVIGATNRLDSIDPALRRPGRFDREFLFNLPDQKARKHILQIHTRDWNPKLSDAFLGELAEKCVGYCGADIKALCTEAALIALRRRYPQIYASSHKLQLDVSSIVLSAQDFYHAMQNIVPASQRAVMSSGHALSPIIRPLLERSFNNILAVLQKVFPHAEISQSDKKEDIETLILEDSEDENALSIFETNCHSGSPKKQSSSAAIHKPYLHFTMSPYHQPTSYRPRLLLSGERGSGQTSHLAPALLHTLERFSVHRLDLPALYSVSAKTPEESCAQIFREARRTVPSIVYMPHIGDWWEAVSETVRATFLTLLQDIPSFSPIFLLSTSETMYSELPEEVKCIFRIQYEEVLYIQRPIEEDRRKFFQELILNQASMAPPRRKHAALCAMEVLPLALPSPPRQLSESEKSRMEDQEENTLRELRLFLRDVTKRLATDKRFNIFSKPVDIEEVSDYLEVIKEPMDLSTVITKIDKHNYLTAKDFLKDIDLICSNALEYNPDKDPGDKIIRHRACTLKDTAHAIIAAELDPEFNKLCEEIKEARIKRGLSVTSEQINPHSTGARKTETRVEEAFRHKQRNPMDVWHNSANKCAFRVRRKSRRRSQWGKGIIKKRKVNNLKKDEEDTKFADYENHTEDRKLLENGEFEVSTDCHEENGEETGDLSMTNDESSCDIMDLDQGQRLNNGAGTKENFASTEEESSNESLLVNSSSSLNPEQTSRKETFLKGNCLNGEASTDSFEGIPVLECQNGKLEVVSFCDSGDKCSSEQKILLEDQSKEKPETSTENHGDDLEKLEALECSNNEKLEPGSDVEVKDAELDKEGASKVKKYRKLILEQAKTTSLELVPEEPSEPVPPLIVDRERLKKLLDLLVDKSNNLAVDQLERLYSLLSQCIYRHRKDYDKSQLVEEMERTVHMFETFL

CREB-binding protein [9] = target: T3, CREB-binding protein; assay: Binding affinity to recombinant human His-tagged CBP bromodomain expressed in bacterial expression system by isothermal titration calorimetry
[10] = target: T2, Histone acetyltransferase p300; assay: Binding affinity to recombinant human His-tagged EP300 expressed in bacterial expression system by isothermal titration calorimetry
CREB-binding protein [11] = target: T3, CREB-binding protein; assay: Binding affinity to CBP bromodomain (unknown origin) by tryptophan fluorescence assay
[12] = target: T1, Bromodomain-containing protein 4; assay: Binding affinity to recombinant BRD4 bromodomain1 (unknown origin) by isothermal titration calorimetry
[13] = target: T4, Histone acetyltransferase KAT2B; remark: listed apart in the source
[14] = tested on: Human immunodeficiency virus 1; assay: Antiviral activity against HIV1 3B infected in human C8166 cells assessed as reduction in virus-induced cytopathic effect by measuring syncytium formation after 3 days by inverted microscopic analysis; assay type: functional, organism-based; conditions: Human immunodeficiency virus 1, 3B, C8166, 72 h
THP-1 = assay: Inhibition of LPS-stimulated IL-6 secretion in human THP1 cells by ELISA; assay type: functional, cell-based

T3 sequence (Q92793 whole entry, the tested form may be a part): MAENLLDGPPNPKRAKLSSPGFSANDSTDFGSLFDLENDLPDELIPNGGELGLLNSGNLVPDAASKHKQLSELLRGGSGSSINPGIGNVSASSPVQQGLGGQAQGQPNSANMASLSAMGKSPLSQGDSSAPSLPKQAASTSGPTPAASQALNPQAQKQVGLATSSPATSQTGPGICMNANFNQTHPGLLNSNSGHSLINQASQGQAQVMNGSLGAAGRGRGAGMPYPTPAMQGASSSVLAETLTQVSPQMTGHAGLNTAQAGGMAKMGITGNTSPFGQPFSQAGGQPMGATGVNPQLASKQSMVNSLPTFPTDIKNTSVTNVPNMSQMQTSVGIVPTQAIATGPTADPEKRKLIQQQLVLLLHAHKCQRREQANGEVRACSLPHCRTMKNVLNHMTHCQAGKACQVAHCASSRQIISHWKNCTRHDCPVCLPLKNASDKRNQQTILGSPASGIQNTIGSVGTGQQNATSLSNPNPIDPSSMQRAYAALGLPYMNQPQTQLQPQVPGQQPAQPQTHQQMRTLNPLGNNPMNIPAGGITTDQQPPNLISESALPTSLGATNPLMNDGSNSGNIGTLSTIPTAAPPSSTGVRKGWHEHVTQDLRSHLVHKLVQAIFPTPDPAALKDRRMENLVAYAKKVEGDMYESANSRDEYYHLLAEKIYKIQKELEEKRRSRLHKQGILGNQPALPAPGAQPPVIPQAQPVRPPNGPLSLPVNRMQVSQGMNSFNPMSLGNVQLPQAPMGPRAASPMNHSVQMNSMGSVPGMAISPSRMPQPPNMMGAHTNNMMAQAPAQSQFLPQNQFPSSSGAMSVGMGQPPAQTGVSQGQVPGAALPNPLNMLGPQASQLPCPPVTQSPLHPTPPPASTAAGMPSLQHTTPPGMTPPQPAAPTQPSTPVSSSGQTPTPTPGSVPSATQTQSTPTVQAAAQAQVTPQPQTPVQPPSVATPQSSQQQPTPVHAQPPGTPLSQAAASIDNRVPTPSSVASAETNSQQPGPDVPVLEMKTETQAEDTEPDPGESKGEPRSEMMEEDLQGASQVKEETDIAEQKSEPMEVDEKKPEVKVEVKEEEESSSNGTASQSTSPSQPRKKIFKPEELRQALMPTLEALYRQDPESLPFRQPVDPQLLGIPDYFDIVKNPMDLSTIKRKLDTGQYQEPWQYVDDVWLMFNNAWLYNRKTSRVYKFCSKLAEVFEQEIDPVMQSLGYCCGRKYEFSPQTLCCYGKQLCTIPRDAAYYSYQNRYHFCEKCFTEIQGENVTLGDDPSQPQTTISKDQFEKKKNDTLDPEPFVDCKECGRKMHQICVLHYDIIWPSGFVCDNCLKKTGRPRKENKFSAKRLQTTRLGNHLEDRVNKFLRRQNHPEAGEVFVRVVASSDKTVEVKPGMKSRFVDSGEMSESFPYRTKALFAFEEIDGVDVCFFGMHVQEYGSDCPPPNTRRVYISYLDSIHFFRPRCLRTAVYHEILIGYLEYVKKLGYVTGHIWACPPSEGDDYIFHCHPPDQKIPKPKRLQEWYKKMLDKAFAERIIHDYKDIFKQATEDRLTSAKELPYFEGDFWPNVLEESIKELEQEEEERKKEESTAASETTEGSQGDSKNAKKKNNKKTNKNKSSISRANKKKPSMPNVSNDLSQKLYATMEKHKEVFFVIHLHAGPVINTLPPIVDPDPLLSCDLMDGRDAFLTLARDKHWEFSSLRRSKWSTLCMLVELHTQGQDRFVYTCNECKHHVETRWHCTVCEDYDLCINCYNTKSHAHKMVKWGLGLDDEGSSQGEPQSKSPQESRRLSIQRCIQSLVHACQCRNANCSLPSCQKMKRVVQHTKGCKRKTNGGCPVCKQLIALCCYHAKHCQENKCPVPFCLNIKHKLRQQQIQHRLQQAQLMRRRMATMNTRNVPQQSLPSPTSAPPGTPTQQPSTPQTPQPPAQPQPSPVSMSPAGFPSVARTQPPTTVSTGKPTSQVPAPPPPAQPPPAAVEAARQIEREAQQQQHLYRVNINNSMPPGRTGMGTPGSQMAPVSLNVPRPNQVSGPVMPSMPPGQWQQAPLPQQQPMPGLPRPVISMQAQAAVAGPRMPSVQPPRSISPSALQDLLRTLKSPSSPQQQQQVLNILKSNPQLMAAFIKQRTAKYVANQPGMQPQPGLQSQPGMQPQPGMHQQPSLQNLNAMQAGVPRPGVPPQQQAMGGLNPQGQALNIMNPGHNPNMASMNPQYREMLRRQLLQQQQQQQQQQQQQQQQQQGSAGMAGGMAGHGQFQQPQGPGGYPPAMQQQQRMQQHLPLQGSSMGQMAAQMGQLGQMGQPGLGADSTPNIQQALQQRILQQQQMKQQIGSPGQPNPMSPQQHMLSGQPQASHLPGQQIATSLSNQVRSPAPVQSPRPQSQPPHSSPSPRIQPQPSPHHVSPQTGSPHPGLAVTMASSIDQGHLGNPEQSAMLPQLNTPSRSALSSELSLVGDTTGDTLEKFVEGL
T4 sequence (Q92831 whole entry): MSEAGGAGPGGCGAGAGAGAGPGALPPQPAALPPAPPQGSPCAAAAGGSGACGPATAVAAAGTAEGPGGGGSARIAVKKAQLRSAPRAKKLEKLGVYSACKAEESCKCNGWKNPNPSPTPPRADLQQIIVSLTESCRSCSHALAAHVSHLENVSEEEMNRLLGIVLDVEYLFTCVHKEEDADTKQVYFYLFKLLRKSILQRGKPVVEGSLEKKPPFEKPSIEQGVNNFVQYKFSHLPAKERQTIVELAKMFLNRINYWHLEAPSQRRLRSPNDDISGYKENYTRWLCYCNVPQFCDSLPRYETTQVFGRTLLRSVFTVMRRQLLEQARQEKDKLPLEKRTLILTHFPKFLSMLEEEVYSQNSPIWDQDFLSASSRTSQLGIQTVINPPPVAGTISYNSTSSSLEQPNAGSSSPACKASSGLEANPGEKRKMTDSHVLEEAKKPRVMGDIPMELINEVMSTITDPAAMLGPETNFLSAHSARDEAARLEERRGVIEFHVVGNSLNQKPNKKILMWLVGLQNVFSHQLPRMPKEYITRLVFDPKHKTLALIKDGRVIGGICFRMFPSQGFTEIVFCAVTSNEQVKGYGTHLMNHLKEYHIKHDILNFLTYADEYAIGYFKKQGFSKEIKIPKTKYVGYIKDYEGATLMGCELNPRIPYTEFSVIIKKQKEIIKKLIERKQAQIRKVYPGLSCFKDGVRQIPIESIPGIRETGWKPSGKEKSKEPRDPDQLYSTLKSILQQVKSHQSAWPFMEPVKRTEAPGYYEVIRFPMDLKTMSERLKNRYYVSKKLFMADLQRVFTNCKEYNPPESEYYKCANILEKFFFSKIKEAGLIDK
Sequence of Cellular tumor antigen p53 (P04637 whole entry): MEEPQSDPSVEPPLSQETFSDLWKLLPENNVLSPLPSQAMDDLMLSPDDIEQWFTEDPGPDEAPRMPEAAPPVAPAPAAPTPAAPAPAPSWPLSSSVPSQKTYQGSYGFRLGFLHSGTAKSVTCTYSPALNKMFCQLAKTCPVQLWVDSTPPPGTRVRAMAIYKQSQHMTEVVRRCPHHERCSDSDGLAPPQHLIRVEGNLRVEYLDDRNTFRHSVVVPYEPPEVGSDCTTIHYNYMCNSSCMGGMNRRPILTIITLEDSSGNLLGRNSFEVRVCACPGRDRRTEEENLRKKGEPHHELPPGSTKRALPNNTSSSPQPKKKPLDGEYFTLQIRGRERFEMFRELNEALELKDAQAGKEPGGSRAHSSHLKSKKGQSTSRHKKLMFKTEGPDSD

Compound `COc1ccc(CCc2nc3cc(-c4c(C)noc4C)ccc3n2C[C@H](C)N2CCOCC2)cc1Cl` has an IC50 [1] of 1.54 µM.
`CCC(=O)N1CCOc2c(cc(-c3ccc(OC)c(OC)c3)cc2OC[C@H]2CCCN(C)C2)C1` was tested, and the IC50 [2] was 0.6 µM, the Kd [3] was 0.167 to 0.343 µM and the Kd (CREB-binding protein [4]) was 0.151 to 0.208 µM. It also gave a Kd [5] of 5.59 µM.
`C[C@H](Nc1nn(C)c(=O)n(C)c1=O)[C@H](c1ccc(S(=O)(=O)c2ccccc2)cc1)N(C)C` gave an IC50 [6] of 0.07 µM.
`CC1Nc2ccccc2NC1=O` (stereo not given) was tested, and the IC50 (CREB-binding protein [7]) was 1900 µM.
For `CO[C@H]1CNC[C@@H](OCC2CCC(F)(F)CC2)[C@@H]1Nc1ncc(-c2cncc(C)c2)c2cc(C)c(=O)[nH]c12`, the Kd [8] was 0.001 µM.
`Cc1noc(C)c1-c1ccc2c(c1)nc(CCc1ccccc1)n2CCN1CCOCC1` gave a Kd (CREB-binding protein [9]) of 0.32 µM and a Kd [10] of 0.35 µM.
Work on `CC(=O)NCCCC[C@@H]1NC(=O)[C@H](Cc2c[nH]c3ccccc23)NC(=O)[C@@H](NC(C)=O)CSSCC(C(=O)N[C@@H](Cc2ccccc2)C(=O)N[C@@H](CCCCN)C(N)=O)NC(=O)[C@H](CC(C)C)NC(=O)[C@H](CCCCN)NC1=O` (single isomer, unassigned) yielded a Kd (CREB-binding protein [11]) of 8 µM.
With `CCCOc1ccc(CCc2nc3cc(-c4c(C)noc4C)ccc3n2CCN2CCOCC2)cc1` the Kd [12] was 20 µM.
For `NCCCNCc1ccc(NCCCN)[n+]([O-])c1`, the IC50 [13] was 0.93 µM and the EC50 [14] was 11.5 µM.
With `Cc1cc(=O)n(C)c2cc(N3C(=O)CC[C@H](NS(=O)(=O)CC(C)C)[C@H]3c3ccc(Cl)cc3)ccc12` the IC50 (THP-1) was < 10 µM.
